Measurements from patent US9150505B2, “Prophylactic or therapeutic agent for diabetes or obesity” (AJINOMOTO CO., INC., priority 2010, dated 2015).

Assays:
human CaSR = target: T1, human CaSR (Homo sapiens, UniProt P41180); experiment: Assessment of CaSR agonistic activity (Ca2+ fluorescence, FLIPR, hCaSR-transfected 293E cells); format: cell-based; conditions: human CaSR-expressing 293E cells, 1.5 mM CaCl2 assay buffer, 3-minute change in fluorescence intensity
T1 construct: expressed in transfected cells; host or cells: 293E cells (EBNA1-expressing HEK293, ATCC No. CRL-10852), transient transfection of hCaSR/pcDNA3.1
T1 sequence (P41180 20-1078): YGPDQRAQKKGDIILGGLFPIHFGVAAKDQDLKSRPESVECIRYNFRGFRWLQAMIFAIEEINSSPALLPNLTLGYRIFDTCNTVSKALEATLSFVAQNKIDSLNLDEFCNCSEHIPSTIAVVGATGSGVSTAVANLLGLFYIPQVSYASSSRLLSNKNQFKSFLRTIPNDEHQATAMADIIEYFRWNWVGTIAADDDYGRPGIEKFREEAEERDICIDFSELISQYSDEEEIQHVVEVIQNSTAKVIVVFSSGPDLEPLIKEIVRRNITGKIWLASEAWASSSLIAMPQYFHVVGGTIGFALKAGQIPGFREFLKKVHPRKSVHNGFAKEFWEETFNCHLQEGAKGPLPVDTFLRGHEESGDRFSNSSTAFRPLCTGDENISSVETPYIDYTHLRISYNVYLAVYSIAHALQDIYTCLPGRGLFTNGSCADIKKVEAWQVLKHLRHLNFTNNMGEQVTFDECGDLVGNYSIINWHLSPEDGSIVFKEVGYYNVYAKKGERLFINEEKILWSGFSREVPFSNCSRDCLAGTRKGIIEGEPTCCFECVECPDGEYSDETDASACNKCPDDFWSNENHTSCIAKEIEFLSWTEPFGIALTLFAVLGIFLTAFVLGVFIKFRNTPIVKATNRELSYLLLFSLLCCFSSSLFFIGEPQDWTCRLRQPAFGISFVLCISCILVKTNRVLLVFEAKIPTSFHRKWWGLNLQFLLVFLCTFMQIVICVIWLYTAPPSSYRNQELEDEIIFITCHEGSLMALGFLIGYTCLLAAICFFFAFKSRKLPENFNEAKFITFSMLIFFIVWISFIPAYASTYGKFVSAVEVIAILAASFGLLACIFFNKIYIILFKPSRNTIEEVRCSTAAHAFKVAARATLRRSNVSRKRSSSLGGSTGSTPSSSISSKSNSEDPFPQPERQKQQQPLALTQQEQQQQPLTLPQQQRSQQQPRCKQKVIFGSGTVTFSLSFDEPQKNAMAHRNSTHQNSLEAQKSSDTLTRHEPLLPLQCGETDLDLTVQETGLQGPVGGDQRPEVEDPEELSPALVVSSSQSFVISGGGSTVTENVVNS
Experimental: CaSR gene was prepared according to the method described in Example 1 of WO07/55393. The resulting recombinant plasmid was used to generate human CaSR-expressing plasmid hCaSR/pcDNA3.1.
293E cells (EBNA1-expressing IIEK293 cells, ATCC No. CRL-10852) were cultured in DMEM ([…] Glucose-containing Dulbecco's modified Eagle medium, Nacalai Tesque) containing 10% bovine fetal serum in the presence of 250 μg/ml of G418. The cells were seeded on a 10 cm-diameter petri dish at 1.8×10^6 cells/15 ml, and left to stand in a CO2 incubator (5% CO2, 37° C.) for 24 hours. Thereafter, human CaSR expression plasmid hCaSR/pcDNA3.1 was transfected with transfection reagent Mirus Trans IT 293 (Takara Bio). Following static culture in a CO2 incubator for 24 hours, the cells were harvested with 10% bovine fetal serum-containing DMEM and seeded on a poly-D-lysine coat 384 well plate (Falcon) at 15,000 cells/well. Following static culture in a CO2 incubator for 24 hours, the medium was removed and the resultant was added with 50 μl/well of Ca^2+ fluorescent indicator Calcium 4 Assay Kit (Molecular Devices) dissolved in an assay buffer (146 mM NaCl, 5 mM KCl, 1 mM MgSO4, 1 mg/ml Glucose, 20 mM HEPES (PH 7.2), 1.5 mM CaCl2), and left to stand at 37° C. for an hour and then at room temperature for 30 minutes to allow intake of the indicator. The above-mentioned 384-well plate was transferred to FLIPR (Molecular Devices) and added with 12.5 μl/well of a compound dissolved in a 0.1% BSA-containing assay buffer to measure 3-minute change in the fluorescence intensity.
The difference between maximum and minimum fluorescence intensities before and after compound addition (RFU (Max−Min)) was determined by FLIPR automatic calculation. An activity rate was calculated where RFU (Max−Min) upon addition of a compound at a maximum concentration was defined 100% and RFU (Max−Min) upon addition of DMSO as a substitute for the compound at the same concentration was defined 0%. The rate was subjected to curve fitting using spreadsheet software Xfit to determine EC50 value, i.e., a compound concentration upon 50% activity rate.

NCI-H716 cells = experiment: Promotion of CCK secretion in NCI-H716 cells; format: cell-based, human
Experimental: Human appendix-derived cell line NCI-H716 (ATCC No CCL-251) was cultured in a 10% FBS-containing DMEM/HamF-12 medium at 37° C. in the presence of 5% CO2. NCI-H716 cells were seeded in a poly-D-lysine-coated 24-well plate at 600,000 cells/well and cultured for two days. Prior to sample addition, wells were washed with Hepes buffer (20 mM Hepes, 146 mM NaCl, 5 mM KCl, 1.5 mM CaCl2, 1 mM MgSO4, 5.5 mM D-glucose, 0.02% BSA, pH 7.4). 300 μl of a sample solution dissolved in the same buffer was added and incubated at 37° C. for 30 minutes. Compound 1 in Example 6 (2 mM) and Compound 2 in Example 48 (1 mM) were used as the samples. In addition, a Hepes buffer was used as a control. After collecting the supernatant, the cells were precipitated by centrifugation (5,000×g, 1 min.) to collect the supernatant thereof, which was lyophilized in Speed Vac Concentrator (SAVANT) and dissolved by addition of 60 μl of water. CCK level in the solution was determined using Enzyme immuno assay kit (EK-069-04; PHENOIX PHARMACEUTICALS).

N[C@@H](CNC(=O)Nc1cc(Cl)cc(S(=O)(=O)O)c1O)C(=O)O [Example 6, (2S)-2-amino-3-{[(5-chloro-2-hydroxy-3-sulfophenyl)carbamoyl]amino}propanoic acid]
EC50 (human CaSR): 3 nM
Relative secretion volumes (CCK) (NCI-H716 cells; 2 mM, 30 minutes at 37° C., buffer assumed to be 1.0): 4.89
effect of promoting CCK secretion (NCI-H716 cells; result in words): confirmed to have an effect of promoting CCK secretion
